For assay [1], the system named is five human malignant mesothelioma cell lines (Ju77, Lo68, No36, One58, Sty51). The experiment in a line: MTT assay, five mesothelioma cell lines. Type of assay: cell-based. The note with it: range over five mesothelioma cell lines, 72 hours, read-out: IC50 (concentration required to reduce cell viability by 50%). The source says: (§1) A panel of five human malignant mesothelioma cell lines, established from the pleural fluid of patients with the disease. These cell lines, designed Ju77, Lo68, No36, One58 and Sty51 have been previously described (1). None of the patients from whom the cell lines were derived had been exposed to chemotherapeutic agents. Two cell lines were purchased from ATCC (Rockville, Md.) for use as controls: HT29—a human colon adenocarcinoma (ATCC HTB38) and A549—a human lung adenocarcinoma (ATCC CCL185). These cell lines are representative of tumours that are generally drug resistant but have shown some responses to newer chemotherapy agents.
(§2) Cells were maintained in RPMI-1640 containing 5% fetal calf serum (Life Technologies Inc., Melbourne), 5×10^−5 M 2-mercaptoethanol, 20 mM HEPES buffer, 100 IU benzylpenicillin/ml (CSL, Perth) and 50 μg gentamicin/ml (David Bull Laboratories, Melbourne), in water saturated air containing 5% CO2 at 37° C. This growth medium will henceforth be called RF-5. All cells were checked at 3 monthly intervals for Mycoplasma and remained negative to testing.
(§3) Drug sensitivities for each cell line were determined by use of the MTT (Sigma-Aldrich, NSW) assay modified from the method described by Mossman (2). […] Optical densities were determined using a SpectraMax 250 plate reader (Molecular Devices) at 570 nm. […]
(Tetrazolium dyes change colour on reduction, which living cells bring about.)

The test system of assay [2] is A549 human lung adenocarcinoma. Nature of the assay: MTT assay, A549. Type of assay: cell-based. The note with it: 72 hours, read-out: IC50 (concentration required to reduce cell viability by 50%).
Description: as §1, §2, §3

The test system of assay [3] is HT29 human colon adenocarcinoma. Nature of the assay: MTT assay, HT29. Type of assay: cell-based. The note with it: HT-29, 72 hours, read-out: IC50 (concentration required to reduce cell viability by 50%).
Description: as §1, §2, §3

Assay [4] deals with mesothelioma and control cells. The experiment in a line: MTT assay, drug toxicity in mesothelioma and control cells. The settings on record: all cell lines. Type of assay: cell-based, human.
Description: as §1, §2, §3

The test system of assay [5] is IL-6. The experiment in a line: IL-6 ELISA of media from treated mesothelioma and control cells. Type of assay: cell-based, human. The note with it: for surge in IL-6 production: as the concentration of drug approached its IC50 value. As to the method:
The IL-6 assay was performed using a human IL-6 ELISA kit (eBioscience, USA) according to the manufacturers protocol. Briefly ninety six well plates were incubated at room temperature overnight with 100 μL per well of monoclonal antihuman IL-6 antibody in coating buffer (0.1M Na2CO3/NaHCO3, pH 9.6). The plate was washed five times with PBS and then 200 μL of blocking buffer added to each well and incubated for one hour at room temperature. The plate was then washed five times in PBS with 0.005% Tween 20 (Sigma-Aldrich, NSW). 100 μL of each sample to be assayed was added to each well and also IL-6 standard solutions ranging from 0.6-400 pg/ml were used to generate a standard curve.
After a one hour incubation, the plate was washed as above and 100 μL of biotinylated-IL-6 antibody solution added for a further hour. Following further washes, 100 μL of streptavidin-HRP conjugate solution was added for 30 minutes and the plates washed. 100 μL of ABTS solution was added and following incubation for 30 minutes at 37° C., the plate was read at 405 nm on a SpectraMax 250 plate reader (Molecular Devices) and the concentration of IL-6 for each sample calculated from the standard curve.
Samples for use in the ELISA were prepared by seeding of cells in 96 well plates with or without chemotherapy as described previously. As in the previous experiments chemotherapy was added 24 hours after cell seeding. For cell lysis experiments 300 μl of distilled water was added to each well and lysis of cells was confirmed by visual inspection. Media from these assays was removed at the appropriate time and stored at −20° C. until the ELISA was performed. The concentration of IL-6 for each cell line represents the mean value generated from three separate experiments. The results from chemotherapy effects on IL-6 production are representative of two or more experiments.
(In general: An ELISA detects its analyte on a solid surface through an enzyme-linked reagent.)

Assay [6] has as its system NO36 mesothelioma cell line. Nature of the assay: MTT assay, NO36. Type of assay: cell-based, human.
Description: as §1, §2, §3

The subject of assay [7] is IL-6. The note with it: mesothelioma cells, concentrations producing a 5-30% reduction in relative cell growth; reference 3; cited from earlier work.

Converted amounts (≈) assume the structure as drawn.

What is called viability is a per cent measure of how many cells are alive, often set against a control. The low end stands for a greater loss of cells, the high end for better survival.

On to `CC(=O)O[C@@]12CO[C@@H]1C[C@H](O)[C@@]1(C)C(=O)[C@H](O)C3=C(C)[C@@H](OC(=O)[C@H](O)[C@@H](NC(=O)OC(C)(C)C)c4ccccc4)C[C@@](O)([C@@H](OC(=O)c4ccccc4)[C@H]21)C3(C)C` [docetaxel, Docetaxel], for which the IC50 in assay [1] was 4.7 to 7.6 ng/mL (≈ 5.82 to 9.41 nM); in assay [2], 5.4 ng/mL (≈ 6.68 nM); in assay [3], 2 ng/mL (≈ 2.48 nM). In addition, the “shape of dose response curve” value in assay [4] is reported as “plateau effect is clear for all cell lines”. For the same compound, the “surge in IL-6 production” value with IL-6 [5] is “a surge in IL-6 production was measured”. Also, the “IL-6 production compared to untreated cells” value in the assay on IL-6 [5] (concentrations below the IC50) is “did not effect IL-6 production”.

As to `Nc1ccn([C@@H]2O[C@H](CO)[C@@H](O)C2(F)F)c(=O)n1` [gemcitabine], the results for the IC50 in assay [1], in assay [2] and in assay [3] were 0.8 to 5 ng/mL (≈ 3.04 to 19 nM), 1.75 ng/mL (≈ 6.65 nM) and 6.7 ng/mL (≈ 25.5 nM), respectively. The compound further showed a viability at 0.01 µg/mL in assay [6] (Homo sapiens, NO36 cells at 10 ng/ml) of 50%. Also, in assay [6] (NO36 cells, MTT), the “concentration at which cell death reaches a plateau” value is “approximately 3 ng/ml”. The “surge in IL-6 production” value with IL-6 [5] is “a surge in IL-6 production was measured”. Also, the “change in IL-6 concentration relative to untreated cells” value in the assay with IL-6 [7] was “decrease in the IL-6 concentration by up to one half”.

Values taken from patent publication US20050090453A1, “Methods of modulating IL-6” (SOLBEC PHARMACEUTICALS CO., LTD., priority 2003, published 2005).
